In brackets after ≈: the same amount, converted by molar mass. Non-standard residues stand in square brackets, D forms with d. Residues, ends and D or L forms follow the SMILES beside them.
Legend:
[1] = system: candida glabrata; assay: microbe, parasite or virus in culture; assay type: cell-based
Procedure: (§1) • (1) Test strains: monilia albicans (candida albicans), candida glabrata, candida krusei, candida tropicalis, aspergillus fumigatus and flavous. Antimicrobial peptides PL-13 (SEQ ID NO: 1) under test are supplied by Jiangsu ProteLight Pharmaceutical & Biotechnology Co., LTD. […] Activation of bacterial strains is conducted at a humidity level of 60% and 25° C. (for aspergillus) or 37° C. (for candida). (2) 0.9% stroke-physiological saline solution comprising 0.5% Tween-80 is used to prepare bacterial suspension for experiment. Hemocytometer is utilized to adjust concentration of the bacterial suspension to 1-3×10^6 CFU/ml (0.5 McFarland units) to make stock solution in reserve at -20° C. During the sensitivity test, the RPMI-1640 liquid medium is diluted 1000 times to 1-3×10^3 CFU/ml. (3) The RPMI-1640 liquid is utilized as diluent to 10-fold dilute stock solution of peptides. […] The eleventh orifice is used as living control orifice, while the twelfth one as blank control. (4) The RPMI-1640 liquid is utilized as diluent to 10-fold dilute stock solution of FCZ and ICZ. […] Ditto for other operations.

[2] = system: aspergillus flavous; assay: microbe, parasite or virus in culture; assay type: cell-based
Procedure: as §1

[3] = system: aspergillus fumigatus; assay: microbe, parasite or virus in culture; assay type: cell-based
Procedure: as §1

[4] = system: candida albicans; assay: microbe, parasite or virus in culture; assay type: cell-based
Procedure: as §1

[5] = Circular dichroism (CD) spectroscopy, helical structure; assay type: physicochemical; settings: for 50% TFE % helix / Benign buffer % helix: relative to ellipticity (100%) of reference peptide in 50% TFE
Procedure: The mean residue molar ellipticities of peptides are determined by circular dichroism (CD) spectroscopy, using a Jasco J-720 spectropolarimeter (Jasco, Easton, Md.), at 25° C. under benign conditions (50 mM KH2PO4/K2HPO4/100 mM KCl, pH7), as well as in the presence of an α-helix inducing solvent, 2,2,2-trifluoroethanol (TFE) (50 mM KH2PO4/K2HPO4/100 mM KCL, pH 7 buffer/50% TFE). A 10-fold dilution of a 500 μM stock solution of the peptide is loaded into a 0.02 cm fused silica cell and its mean residue molar ellipticity scanned from 190 to 250 nm. The values of mean residue molar ellipticities of the peptide at a wavelength of 222 nm are used to estimate the relative amount of α-helicity of the peptides.
To determine the secondary structure of peptides in different environments, circular dichroism (CD) spectra of the peptide analogs are measured under physiologically related pH and ionic strength (100 mM KCl, 50 mM aq. PO4, pH 7 referred to as benign conditions) and also in 50% TFE to mimic the hydrophobic environment of the membrane. CD spectra of the peptide analogs are measured under benign conditions (100 mM KCl, 50 mM KH2PO4/K2HPO4, pH 7, referred to as KP buffer) and also in 50% trifluoroethanol (TFE) to mimic the hydrophobic environment of the membrane. […] However, in the presence of 50% TFE, all three L-peptides are fully folded α-helical structures with similar molar ellipticities and helicity.
FIG. 2 illustrates graphical results of Circular dichroism (CD) spectra of peptides at pH 7.4 and 25° C., in 50 mM aq. PO4 containing 100 mM KCl, wherein KP buffer (50 mM KH2PO4, K2HPO4, 100 mM KCl, pH 7.4) mimics hydrophilic environment and KP buffer-TFE (1:1 [vol/vol]) mimics hydrophobic environment of cell membrane. The figure above represents the CD spectra of peptides in benign buffer without TFE, whilst the figure below represents CD spectra obtained in the presence of 50% TFE.

[6] = RP-HPLC temperature profiling: hydrophobicity and self-association; assay type: physicochemical; settings: for tR(min) 5° C. / tR(min) 80° C.: RP-HPLC temperature profiling; for PA (min), association parameter: maximal normalized retention time difference within 5-80° C., self-association ability; for tR(min) Max: maximal retention time during temperature profiling 5-80° C.; for ΔtR(X-Peptide C)(min) 5° C.: retention time difference to control peptide C at 5° C.; for ΔtR(X-Peptide C)(min) 5° C. / ΔtR(X-Peptide C)(min) 80° C.: relative hydrophobicity; for ΔtR(X-Peptide C)(min) 80° C.: retention time difference to control peptide C at 80° C.; for Hydrophobicity tR5: retention time in RP-HPLC at pH 2, 5° C.; for Hydrophobicity tR80: retention time in RP-HPLC at pH 2, 80° C.
Procedure: Peptides are analyzed on an Agilent 1200 series liquid chromatograph (Little Falls, Del.). Runs are performed on a Zorbax 300 SB-C8 column (150×4.6 mm I.D.; 5 μm particle size, 300 Å pore size) from Agilent Technologies using linear AB gradient (1% acetonitrile/min) and a flow rate of 1 ml/min, where solvent A is 0.05% aqueous TFA, pH 2 and solvent B is 0.05% TFA in acetonitrile.
We further use temperature profiling during RP-HPLC to determine the self-association ability of various analogs of PL-13 (SEQ ID NO: 1) which would occur through interaction of the non-polar faces of these amphipathic peptides α-helices. We use 50% TFE aqueous acetonitrile and hydrophobic conditions in the reversed-phase column (hydrophobic stationary phase and the hydrophobic organic solvent in the mobile phase) since the hydrophobic environment of a reversed-phase column also could induce α-helical structure. Since its introduction, the technique of RP-HPLC temperature profiling has been applied on several types of molecules, including cyclic β-sheet peptides, monomeric α-helices and α-helices that dimerize, as well as α-helices that dimerize to form coiled-coils. Although peptides are eluted from a reversed-phase column mainly by an adsorption/desorption mechanism, even a peptide strongly bound to a hydrophobic stationary phase will partition between the matrix and the mobile phase when the acetonitrile content becomes high enough during gradient elution. In summary, the mechanism is based on four assumptions: (i) at low temperature, just as an amphipathic α-helical peptide is able to dimerize in aqueous solution (through its hydrophobic, non-polar face), it will dimerize in solution during partitioning in reversed-phase chromatography; (ii) at higher temperatures, the monomer-dimer equilibrium favors the monomer as the dimer is disrupted; (iii) at sufficiently high temperatures, only monomer is present in solution; and (iv) peptide is always bound in its monomeric helical form to the hydrophobic stationary phase, i.e., the dimer can only be present in solution and disruption of the dimer is required for rebinding to the RP-HPLC matrix.
([θ]222=−3,950). Since peptide C is a monomeric random coil peptide in both aqueous and hydrophobic media, its retention behavior over the temperature range 5-80° C. represents only general temperature effects on peptide retention behavior, i.e., a linear decrease in peptide retention time with increasing temperature due to greater solute diffusivity and enhanced mass transfer between the stationary and mobile phases at higher temperatures. Thus, after normalization to the retention times of peptide C, the retention behavior of the peptides only represents peptide self-association ability. Note that the higher the PA value, the greater the self-association ability. The order of peptide self-association ability of the three pairs of peptide enantiomers is identical to the order of peptide hydrophobicity. Apart from the decrease in retention time due to the general temperature effects noted above, destruction of the α-helix will also occur with increasing temperature, resulting in reduced retention times as the peptides become increasingly random coils.
The retention time data for the peptides is shown in Table 6 which records retention times at 5° C., the maximal retention times and retention times at 80° C. during the temperature profiling. Temperatures of 5-80° C. are the lower and upper temperature limits of temperature profiling in RP-HPLC, representing polymerization of the peptides at 5° C. and the monomerization of peptides at 80° C. due to denaturation of peptides by high temperature and dissociation of the polymers. The maximal retention times represent the threshold points at which peptides totally transform from polymeric to monomeric form. […]

[7] = system: candida tropicalis; assay: microbe, parasite or virus in culture; assay type: cell-based
Procedure: as §1

## Ac-FKKLKKKFSKLWNWK-NH2 (N-terminus and C-terminus assumed) [PL-23]
[1]
  Minimal inhibitory concentration: 32 µg/mL
[2]
  Minimal inhibitory concentration: >64 µg/mL
[3]
  Minimal inhibitory concentration: 64 µg/mL
[4]
  Minimal inhibitory concentration: 16 µg/mL

## CC(=O)N[C@H](CC(C)C)C(=O)N[C@H](Cc1ccccc1)C(=O)N[C@H](CCCCN)C(=O)N[C@H](CCCCN)C(=O)N[C@H](CC(C)C)C(=O)N[C@H](CCCCN)C(=O)N[C@H](CCCCN)C(=O)N[C@H](CC(C)C)C(=O)N[C@H](Cc1ccccc1)C(=O)N[C@H](CO)C(=O)N[C@H](CCCCN)C(=O)N[C@H](CC(C)C)C(=O)N[C@H](Cc1c[nH]c2ccccc12)C(=O)N[C@H](CC(N)=O)C(=O)N[C@H](Cc1c[nH]c2ccccc12)C(=O)N[C@H](CCCCN)C(N)=O [PL-51] (Ac-[dL][dF][dK][dK][dL][dK][dK][dL][dF][dS][dK][dL][dW][dN][dW][dK]-NH2; N-terminus and C-terminus assumed)
[5]
  50% TFE % helix: 100.0%
  Benign buffer % helix: 16.8%
[5]; mean residue molar ellipticity at 222 nm, 25° C., buffer containing 50% TFE
  50% TFE [θ]222: 28200 deg · cm^2 · dmol^−1
[6]
  tR(min) 5° C.: 42.59 min
  tR(min) 80° C.: 41.35 min
  PA (min), association parameter: 1.63 min
  tR(min) Max: 42.96 min
  ΔtR(X-Peptide C)(min) 5° C.: 20.02 min
  ΔtR(X-Peptide C)(min) 80° C.: 21.42 min
  Hydrophobicity tR5: 42.59 min
  Hydrophobicity tR80: 41.35 min
[2]
  Minimal inhibitory concentration: >64 µg/mL

## Ac-FKKLKKLFSKLWNWKK-NH2 (N-terminus and C-terminus assumed) [PL-48]
[2]
  Minimal inhibitory concentration: >64 µg/mL
[7]
  Minimal inhibitory concentration: 8 µg/mL
[3]
  Minimal inhibitory concentration: 32 µg/mL

## CC(=O)N[C@H](Cc1ccccc1)C(=O)N[C@H](CCCCN)C(=O)N[C@H](CCCCN)C(=O)N[C@H](CC(C)C)C(=O)N[C@H](CCCCN)C(=O)N[C@H](CCCCN)C(=O)N[C@H](CC(C)C)C(=O)N[C@H](Cc1ccccc1)C(=O)N[C@H](CO)C(=O)N[C@H](CCCCN)C(=O)N[C@H](CC(C)C)C(=O)N[C@H](CC(C)C)C(=O)N[C@H](CC(N)=O)C(=O)N[C@H](CC(C)C)C(=O)N[C@H](CCCCN)C(N)=O [PL-37] (Ac-[dF][dK][dK][dL][dK][dK][dL][dF][dS][dK][dL][dL][dN][dL][dK]-NH2)
[2]
  Minimal inhibitory concentration: >64 µg/mL

## Ac-KKLKKLFSKLWNW-NH2 (N-terminus and C-terminus assumed) [PL-30]
[1]
  Minimal inhibitory concentration: 32 µg/mL
[2]
  Minimal inhibitory concentration: >64 µg/mL
[4]
  Minimal inhibitory concentration: 16 µg/mL

## CC(=O)N[C@H](CCCCN)C(=O)N[C@H](CC(C)C)C(=O)N[C@H](CCCCN)C(=O)N[C@H](CCCCN)C(=O)N[C@H](CC(C)C)C(=O)N[C@H](Cc1ccccc1)C(=O)N[C@H](CO)C(=O)N[C@H](CCCCN)C(=O)N[C@H](CC(C)C)C(=O)N[C@H](Cc1c[nH]c2ccccc12)C(=O)N[C@H](CC(N)=O)C(=O)N[C@H](Cc1c[nH]c2ccccc12)C(=O)N[C@H](CCCCN)C(N)=O [PL-40] (Ac-[dK][dL][dK][dK][dL][dF][dS][dK][dL][dW][dN][dW][dK]-NH2; N-terminus and C-terminus assumed)
[5]
  50% TFE % helix: 70.7%
  Benign buffer % helix: 6.0%
[6]
  tR(min) 5° C.: 33.16 min
  tR(min) 80° C.: 30.94 min
  PA (min), association parameter: 0.55 min
  tR(min) Max: 33.16 min
  ΔtR(X-Peptide C)(min) 5° C.: 10.60 min
  ΔtR(X-Peptide C)(min) 80° C.: 11.01 min
  Hydrophobicity tR5: 33.16 min
  Hydrophobicity tR80: 30.94 min
[2]
  Minimal inhibitory concentration: >64 µg/mL
[4]
  Minimal inhibitory concentration: 16 µg/mL (≈ 9.09 µM)

## Ac-FKKFKKLLSKLWNWK-NH2 (N-terminus and C-terminus assumed) [PL-32]
[1]
  Minimal inhibitory concentration: 32 µg/mL
[2]
  Minimal inhibitory concentration: >64 µg/mL
[3]
  Minimal inhibitory concentration: 64 µg/mL
